# How the values were obtained:
# micturition interval = assay: 5-HT1A receptor agonist (8-OH-DPAT)-induced model of OAB, cystometry; assay type: in vivo, female SD rats; conditions: intravenous infusion 0.06 mg/kg/h, female SD rats
# Protocol: Catheter implantations and cystometric investigations were performed based on the reported method [14]. Briefly, on the day before the cystometric experiment, female SD rats were initially anesthetized with pentobarbital (50 mg/kg ip). Catheters were inserted into the femoral vein, the dome of the stomach and the dome of the bladder. In the cystometric study, the bladder catheter was connected to an infusion pump and a pressure transducer (DX-312; Nihon Kohden Co., Tokyo, Japan) by three-way stopcock. Saline was infused into the bladder and femoral vein. After bladder pressure was stabilized, 8-OH-DPAT (0.06 mg/kg/h) was infused into the femoral vein instead of saline. Bladder pressure was monitored with a pressure transducer and a pressure amplifier (AP-601G; Nihon Kohden), and recorded on a pen recorder (WT-645G; Nihon Kohden). The following three micturition intervals (i.e., intervals between consecutive peaks of bladder pressure induced at the time of bladder content evacuation) were obtained: (1) basal micturition interval (intervals before 8-OH-DPAT administration), (2) pre-administration micturition interval, (intervals immediately before administration of E2110 or vehicle), and (3) post-administration micturition interval (intervals observed between 1 and 2 hr after administration of E2110 or vehicle). […] E2110 (0.03, 0.1 or 0.3 mg/kg) or vehicle was administered to four groups of eight conscious rats orally.
# Data are expressed as mean ± standard error of mean (S.E.M). In the pharmacological study, the statistical significance of differences between the vehicle- and E2110-treated groups was tested using one-way analysis of variance (ANOVA) followed by Dunnett’s multiple comparison test. A probability (p) value of <0.05 (two-sided) was considered statistically significant. All statistical analyses were performed using the SAS software package version 8.1 or 8.2 (SAS Institute Japan Ltd., Tokyo, Japan).
# rat 5-HT1A receptor = target: T1, rat 5-HT1A receptor (Rattus norvegicus, UniProt P19327); assay: Binding assay in rat hippocampal membrane fraction ([3H]MPPF); conditions: saturation binding, rat hippocampal membranes, Scatchard plot
# T1 construct: from tissue; host or cells: rat hippocampus, membrane (microsomal) fraction
# T1 sequence (P19327 1-422): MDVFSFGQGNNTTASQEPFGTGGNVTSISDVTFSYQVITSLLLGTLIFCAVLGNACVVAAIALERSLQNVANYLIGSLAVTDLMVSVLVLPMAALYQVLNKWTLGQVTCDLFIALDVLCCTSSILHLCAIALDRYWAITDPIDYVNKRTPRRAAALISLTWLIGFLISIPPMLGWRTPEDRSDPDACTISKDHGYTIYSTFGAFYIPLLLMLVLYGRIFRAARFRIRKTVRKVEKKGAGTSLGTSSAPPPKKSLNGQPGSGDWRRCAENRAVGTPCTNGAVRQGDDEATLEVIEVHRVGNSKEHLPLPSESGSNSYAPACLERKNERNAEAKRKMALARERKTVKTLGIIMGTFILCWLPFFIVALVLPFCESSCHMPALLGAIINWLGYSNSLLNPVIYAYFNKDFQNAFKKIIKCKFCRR
# Protocol: Rat hippocampal samples were weighed, homogenized in 10-fold volume of 50 mM Tris-HCl (pH 7.4) on an ice bath, and centrifuged (50,000×g, 4°C, 20 min). The precipitate was further homogenized in a 10-fold volume of 50 mM Tris-HCl (pH 7.4) on an ice bath and centrifuged (50,000×g, 4°C, 20 min). The obtained precipitate was homogenized in 50 mM Tris-HCl (pH 7.4) to render a concentration of 100 mg tissue eq./mL. The obtained microsomal fraction was stored as a receptor stock solution at -80°C until use. […] MPPF in a total 1-ml reaction volume at 25°C for 60 min. The reaction was terminated, and bound radioactivity was separated from free radioligands by filtering and washing three times with 3 ml of 50 mM Tris-HCl (pH 7.4). The radioactivity content of the filters in 5 ml of liquid scintillator (Atomlight; PerkinElmer) was counted by TR2500 scintillation counter (PerkinElmer Life & Analytical Sciences). The specific binding was determined as the difference between total and nonspecific binding, measured in the absence and presence of 100 µM 5-HT. Data were analyzed by Scatchard plot to estimate equilibrium constant (Kd) values. For the competition experiments, binding assays were carried out using 0.3 nM [^3H] […] MPPF according to the following equation:
# Ki=IC50/1+[radioligand]/Kd (1)
# where [radioligand] means the concentration of the radioligand used.
# 5-HT1A [1] = conditions: hippocampus, PET, isoflurane-anesthetized rats; cited from earlier work
# 5-HT1A [2] = conditions: hippocampal, unanesthetized rats; cited from earlier work
smiles,measurement,setting,value
"CCCN(CCC)C1CCc2cccc(O)c2C1 (stereo not shown) [8-OH-DPAT, 8-hydroxy-2-(di-n-propylamino)-tetralin, reference compound]",micturition interval versus basal level,micturition interval,markedly decreased
"COc1ccccc1N1CCN(CCN(C(=O)c2ccc(F)cc2)c2ccccn2)CC1 [[^3H] MPPF, [^3H] 2'-methoxyphenyl-(N-2'-pyridinyl)-p-fluoro-benzamidoethyipiperazine, reference compound]",Kd,rat 5-HT1A receptor,0.92 nM
CC(C)NCC(O)COc1cccc2[nH]ccc12 (stereo not shown) [pindolol],in vivo ED50 for 5-HT1A RO,5-HT1A [1],5.6 mg/kg
same,"ED50 for 5-HT1A RO, ex vivo autoradiography",5-HT1A [2],8.5 mg/kg

# — paper PMC3781034, “A Small-Animal Pharmacokinetic/Pharmacodynamic PET Study of Central Serotonin 1A Receptor Occupancy by a Potential Therapeutic Agent for Overactive Bladder” (PLoS ONE, 2013)
